Like-named read-outs stand apart in the source and are kept apart here. Positions of bridges follow the written chain, without caps; N, C: chain ends. Non-standard residues stand in square brackets, D forms with d. Residues, ends and D or L forms follow the SMILES beside them. Triazole bridges read from a SMILES are 1,4-linked. dLys(N3) = [N-]=[N+]=NCCCC[C@@H](N)C(=O)O; Lys(N3) = [N-]=[N+]=NCCCC[C@H](N)C(=O)O; S5 = C=CCCC[C@](C)(N)C(=O)O; dPra = C#CC[C@@H](N)C(=O)O; Pra = C#CC[C@H](N)C(=O)O
What was measured:
C. parapsilosis DSM 5784 = type: cell-based
C. albicans ATCC 90028 = type: cell-based
Protocol: C. albicans ATCC 90028, C. auris DSM 21092, C. glabrata DSM 11226, C. tropicalis DSM11951 and C. parapsilosis DSM 4874 grown on YPD Agar (1% w/v yeast extract, 2% w/v peptone, 2% w/v glucose, 1.5% Agar) were cultured in Tryptone soya broth supplemented with 0.1% glucose for 16–18 h at 37 °C, washed twice using sterile phosphate-buffered saline (PBS) and standardized to […] as required for the experiments. RPMI1640 medium (Thermo Fisher Scientific, Waltham, MA, USA) buffered to a pH of 7.0 with 0.165 M MOPS was used for growing the biofilms of all Candida species.
The antifungal activity of peptides against all five Candida species was determined according to CLSI-M27-A3 [33], as reported previously. Briefly, the compounds were tested at concentrations ranging from […] to 50 μM, and the organism suspensions were adjusted to an inoculum of 10^6 cell/mL at OD 590 nm in RPMI 1640, added to the 96-well plate and incubated at 37 °C for 24 h. The minimum inhibitory concentration (MIC) values were determined as the lowest concentration inhibiting fungal growth at 590 nm using a microplate reader (Synergy™ H4; BioTek Instruments, Inc., Winooski, VT, USA). […] The MFC was the lowest concentration that yielded no colony growth on the agar. The MFC/MIC ratio was calculated to determine whether the substance had fungistatic (MFC/MIC ≥ 4) or fungicidal (MFC/MIC < 4) activity.

[1] = CLSI-M27-A3, RPMI 1640, 10^6 cell/mL, 37 °C, 24 h, read at 590 nm, tested 6.5 to 50 μM

Row | Structure (SMILES) | MIC, C. parapsilosis DSM 5784 (C. parapsilosis DSM 5784; [1]) [µM] | MIC, C. albicans ATCC 90028 (C. albicans ATCC 90028; [1]) [µM] | MIC, C. parapsilosis DSM 5784 (C. parapsilosis DSM 5784; DSM 5784, 24 h) [µM] | MIC, C. albicans ATCC 90028 (C. albicans ATCC 90028; ATCC 90028, 24 h) [µM]
1 | CC[C@H](C)[C@@H]1NC(=O)[C@H](CCCNC(=N)N)NC(=O)CNC(=O)[C@H](NC(=O)[C@H](Cc2ccccc2)NC(=O)[C@H](CCCCN)NC(=O)[C@H](CO)NC(=O)[C@H](Cc2ccccc2)NC(=O)[C@H](Cc2c[nH]c3ccccc23)NC(=O)[C@@H]2CCCN2C(=O)[C@@H](NC(=O)[C@@H](N)Cc2ccccc2)C(C)C)CCCCNC(=O)CC[C@@H](C(N)=O)NC1=O [compound 1] (H-FVPWFSKF[dK]GRIE-NH2; lactam 9-13; N-terminus assumed) | >50 | >50 |  | 
2 | CC(C)C[C@H](NC(=O)[C@@H]1CCC(=O)NCCCC[C@H](NC(=O)[C@H](CCCCN)NC(=O)[C@H](CO)NC(=O)[C@H](Cc2ccccc2)NC(=O)[C@H](Cc2c[nH]c3ccccc23)NC(=O)[C@@H]2CCCN2C(=O)[C@@H](NC(=O)[C@@H](N)Cc2ccccc2)C(C)C)C(=O)N[C@H](CC(C)C)C(=O)NCC(=O)N[C@@H](CCCNC(=N)N)C(=O)N1)C(N)=O [compound 2] (H-FVPWFSKK[dL]GREL-NH2; lactam 8-12; N-terminus assumed) |  |  | >50 | >50
3 | CC[C@H](C)[C@H](NC(=O)[C@H](CCCNC(=N)N)NC(=O)CNC(=O)[C@H]1CCC(=O)NCCCC[C@H](NC(=O)[C@H](Cc2c[nH]c3ccccc23)NC(=O)[C@@H]2CCCN2C(=O)[C@@H](NC(=O)[C@@H](N)Cc2ccccc2)C(C)C)C(=O)N[C@@H](CO)C(=O)N[C@@H](CCCCN)C(=O)N[C@@H](Cc2ccccc2)C(=O)N1)C(=O)N[C@@H](CC(C)C)C(N)=O [compound 4] (H-FVPWKSKF[dE]GRIL-NH2; lactam 5-9; N-terminus assumed) |  |  | >50 | >50
4 | CC[C@H](C)[C@H](NC(=O)[C@H](CCCNC(=N)N)NC(=O)CNC(=O)[C@@H](CC(C)C)NC(=O)[C@@H]1CCC(=O)NCCCC[C@H](NC(=O)[C@@H]2CCCN2C(=O)[C@@H](NC(=O)[C@@H](N)Cc2ccccc2)C(C)C)C(=O)N[C@@H](Cc2ccccc2)C(=O)N[C@@H](CO)C(=O)N[C@@H](CCCCN)C(=O)N1)C(=O)N[C@@H](CC(C)C)C(N)=O [compound 5] (H-FVPKFSKE[dL]GRIL-NH2; lactam 4-8; N-terminus assumed) |  |  | >50 | >50
5 | CC[C@H](C)[C@@H]1NC(=O)[C@H](CCCNC(=N)N)NC(=O)CNC(=O)[C@H](NC(=O)[C@H](Cc2ccccc2)NC(=O)[C@H](CCCCN)NC(=O)[C@H](CO)NC(=O)[C@H](Cc2ccccc2)NC(=O)[C@H](Cc2c[nH]c3ccccc23)NC(=O)[C@@H]2CCCN2C(=O)[C@@H](NC(=O)[C@@H](N)Cc2ccccc2)C(C)C)Cc2cn(nn2)CCCC[C@@H](C(N)=O)NC1=O [compound 6] (H-FVPWFSKF[dPra]GRI[Lys(N3)]-NH2; triazole 9-13; N-terminus assumed) |  |  | >50 | >50
6 | CC[C@H](C)[C@H](NC(=O)[C@H](CCCNC(=N)N)NC(=O)[C@@H]1CCCCn2cc(nn2)C[C@H](NC(=O)[C@H](Cc2ccccc2)NC(=O)[C@H](Cc2c[nH]c3ccccc23)NC(=O)[C@@H]2CCCN2C(=O)[C@@H](NC(=O)[C@@H](N)Cc2ccccc2)C(C)C)C(=O)N[C@@H](CCCCN)C(=O)N[C@@H](Cc2ccccc2)C(=O)N[C@H](CC(C)C)C(=O)N1)C(=O)N[C@@H](CC(C)C)C(N)=O [compound 8] (H-FVPWF[Pra]KF[dL][Lys(N3)]RIL-NH2; triazole 6-10; N-terminus assumed) |  |  | >50 | >50
7 | CC[C@H](C)[C@H](NC(=O)[C@H](CCCNC(=N)N)NC(=O)CNC(=O)[C@H]1CCCCn2cc(nn2)C[C@H](NC(=O)[C@H](Cc2c[nH]c3ccccc23)NC(=O)[C@@H]2CCCN2C(=O)[C@@H](NC(=O)[C@@H](N)Cc2ccccc2)C(C)C)C(=O)N[C@@H](CO)C(=O)N[C@@H](CCCCN)C(=O)N[C@@H](Cc2ccccc2)C(=O)N1)C(=O)N[C@@H](CC(C)C)C(N)=O [compound 9] (H-FVPW[Pra]SKF[dLys(N3)]GRIL-NH2; triazole 5-9; N-terminus assumed) |  |  | >50 | >50
8 | CC[C@H](C)[C@H](NC(=O)[C@H](CCCNC(=N)N)NC(=O)CNC(=O)[C@@H](CC(C)C)NC(=O)[C@@H]1CCCCn2cc(nn2)C[C@H](NC(=O)[C@@H]2CCCN2C(=O)[C@@H](NC(=O)[C@@H](N)Cc2ccccc2)C(C)C)C(=O)N[C@@H](Cc2ccccc2)C(=O)N[C@@H](CO)C(=O)N[C@@H](CCCCN)C(=O)N1)C(=O)N[C@@H](CC(C)C)C(N)=O [compound 10] (H-FVP[Pra]FSK[Lys(N3)][dL]GRIL-NH2; triazole 4-8; N-terminus assumed) |  |  | >50 | >50
9 | CC(C)C[C@H](NC(=O)[C@@H]1CCC(=O)NCCCC[C@H](NC(=O)[C@H](Cc2c[nH]c3ccccc23)NC(=O)[C@@H]2CCCN2C(=O)[C@@H](NC(=O)[C@@H](N)Cc2ccccc2)C(C)C)C(=O)N[C@@H](CO)C(=O)N[C@@H](CCCCN)C(=O)N[C@@H](Cc2ccccc2)C(=O)N[C@H](CC(C)C)C(=O)NCC(=O)N[C@@H](CCCNC(=N)N)C(=O)N1)C(N)=O [compound 12] (H-FVPWKSKF[dL]GREL-NH2; lactam 5-12; N-terminus assumed) |  |  | >50 | >50
10 | CC[C@H](C)[C@@H]1NC(=O)[C@H](CCCNC(=N)N)NC(=O)CNC(=O)[C@@H](CC(C)C)NC(=O)[C@H](Cc2ccccc2)NC(=O)[C@H](CCCCN)NC(=O)[C@@H](NC(=O)[C@H](Cc2ccccc2)NC(=O)[C@H](Cc2c[nH]c3ccccc23)NC(=O)[C@@H]2CCCN2C(=O)[C@@H](NC(=O)[C@@H](N)Cc2ccccc2)C(C)C)Cc2cn(nn2)CCCC[C@@H](C(N)=O)NC1=O [compound 13] (H-FVPWF[Pra]KF[dL]GRI[Lys(N3)]-NH2; triazole 6-13; N-terminus assumed) |  |  | >50 | >50
11 | CC(C)C[C@H](NC(=O)[C@@H]1CCCCn2cc(nn2)C[C@H](NC(=O)[C@H](Cc2c[nH]c3ccccc23)NC(=O)[C@@H]2CCCN2C(=O)[C@@H](NC(=O)[C@@H](N)Cc2ccccc2)C(C)C)C(=O)N[C@@H](CO)C(=O)N[C@@H](CCCCN)C(=O)N[C@@H](Cc2ccccc2)C(=O)N[C@H](CC(C)C)C(=O)NCC(=O)N[C@@H](CCCNC(=N)N)C(=O)N1)C(N)=O [compound 14] (H-FVPW[Pra]SKF[dL]GR[Lys(N3)]L-NH2; triazole 5-12; N-terminus assumed) |  |  | >50 | >50
12 | CC[C@H](C)[C@H](NC(=O)[C@H](CCCNC(=N)N)NC(=O)[C@]1(C)CCCC=CCCC[C@](C)(NC(=O)[C@H](Cc2ccccc2)NC(=O)[C@H](Cc2c[nH]c3ccccc23)NC(=O)[C@@H]2CCCN2C(=O)[C@@H](NC(=O)[C@@H](N)Cc2ccccc2)C(C)C)C(=O)N[C@@H](CCCCN)C(=O)N[C@@H](Cc2ccccc2)C(=O)N[C@H](CC(C)C)C(=O)N1)C(=O)N[C@@H](CC(C)C)C(N)=O [compound 17] (H-FVPWF[S5]KF[dL][S5]RIL-NH2; staple 6-10; N-terminus assumed) |  |  | >50 | >50
